Experimental data: patent publication US8598374B2, “GPR120 receptor agonists and uses thereof” (Metabolex, Inc, priority 2008, dated 2013)

target: T1, human GPR120 (Homo sapiens, UniProt Q5NUL3); assay: Intracellular Ca2+ assay (FLIPR Calcium 4, Flexstation) in human GPR120 stable cell line; format: cell-based; details: % activity at 2.5 μM compared to the maximal activity of the compound of Example 25 at 2.5 μM; HEK293 cells co-expressing Gqi5
T1 construct: Flag (DYKDDDDK) (N); host or cells: HEK293 cells co-expressing Gqi5
T1 sequence (Q5NUL3 1-361): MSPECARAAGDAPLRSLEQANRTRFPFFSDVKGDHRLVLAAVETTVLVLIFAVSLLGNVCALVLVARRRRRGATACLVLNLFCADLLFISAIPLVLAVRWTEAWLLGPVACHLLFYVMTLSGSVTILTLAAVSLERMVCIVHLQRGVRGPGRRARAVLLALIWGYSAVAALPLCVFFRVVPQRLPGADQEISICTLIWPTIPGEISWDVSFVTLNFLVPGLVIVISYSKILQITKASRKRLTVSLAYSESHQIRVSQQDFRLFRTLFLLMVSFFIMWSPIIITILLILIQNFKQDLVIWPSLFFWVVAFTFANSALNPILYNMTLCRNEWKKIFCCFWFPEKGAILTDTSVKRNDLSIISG
Method: Human GPR120 stable cell line was purchased from Multispan Inc (26219 Eden Landing Road, Hayward, Calif. 94545). This GPR120 cell line was generated in HEK293 cells co-expressing Gqi5. In this cell line, the Flag epitope tag (DYKDDDDK) was fused to the amino terminus of human GPR120 protein.
The concentration of intracellular Ca^2+ was measured as described below. Human GPR120 cells were plated in 96 well plates (Poly-D-Lysine coated black/clear Plate, Greiner Bio-One) at 70,000 cells per well and cultured overnight in conditions of 37° C. and 5% CO2. A Ca^2+ assay dye stock solution was prepared by adding 10 mL of assay buffer (HBSS/20 mM HEPES, pH 7.4) to FLIPR Calcium 4 Assay Bulk Kit (Molecular Devices). The 10 mL of Ca^2+ assay dye solution was prepared by further diluting 0.5 mL of Ca^2+ assay dye stock solution with 10 mL of assay buffer. The medium of the cells was removed and immediately 100 μL of the Ca^2+ assay dye solution was dispensed into each well followed by incubation at 37° C. and 5% CO2 for 50 minutes to incorporate the Ca^2+ dye into the cells. The cell plate was then placed in the Flexstation (Molecular Devices) for 20 minutes at 37° C. Compounds were dissolved in 100% DMSO and diluted to desired concentrations with assay buffer and placed in the Flexstation simultaneously with the cell plate for 20 minute incubation at 37° C. prior to reading. Fluorescence intensity was measured immediately following compound addition (25 μL/well) on the Flexstation at an excitation wavelength of 485 nm and an emission wavelength of 525 with 515 nm auto cutoff. The resulting increase in fluorescence intensities corresponds to increases in intracellular Ca^2+ levels.
Compounds were dissolved in 100% DMSO to a concentration of 20 mM to provide stock solutions. To determine activity against human GPR120, compounds were added with human GPR120 stably expressing cells (described above), at eight desired concentrations ranging from 0.00001 to 20 μM, in 96 well plates and fluorescence intensities were measured for 90 seconds with 2-second intervals. An EC50 value (concentration of the GPR120 agonist where 50% of the agonist's maximal activity is observed) was calculated using the changes (Max-Min) of fluorescence intensity.
To determine percent activity for a tested compound, the fluorescence intensity value obtained at a particular concentration were compared to the maximal fluorescence intensity value obtained for reference compound GW9508 (4-[[(3-phenoxyphenyl)methyl]amino]benzene propanoic acid; British Journal of Pharmacology 2006 148, 619-628) or the compound of Example 25. When GW9508 was used as the reference compound, the maximal activity of GW9508 at 6.7 μM was designated as 100% activity. When the compound of Example 25 was used as the reference compound, the maximal activity of the compound of Example 25 at 2.5 μM was designated as 100% activity. Typically, the GW9508 activity reached a maximum at a concentration of approximately 6.7 μM and typically the compound of Example 25 reached a maximum activity at approximately 2.5 μM.

SMILES	% Activity (Ex. 25 Reference Compound) [%]
CC(Cc1cc(F)c(OCc2cc(Cl)cc3c2OC(C)C3(C)C)c(F)c1)C(=O)O (centres unmarked) [Example 109, 3-(4-((5-chloro-2,3,3-trimethyl-2,3-dihydrobenzofuran-7-yl)methoxy)-3,5-difluorophenyl)-2-methylpropanoic acid]	72.36
COc1cc(COc2ccc(CC(C)C(=O)O)cc2)c2c(c1)CC(C)(C)O2 (centres unmarked) [Example 108, 3-(4-((5-methoxy-2,2-dimethyl-2,3-dihydrobenzofuran-7-yl)methoxy)phenyl)-2-methylpropanoic acid]	143.85
CC(Cc1ccc(OCc2cc(-c3ccc(Cl)cc3)cc3c2OC(C)(C)C3)cc1)C(=O)O (centres unmarked) [Example 82, 3-(4-((5-(4-chlorophenyl)-2,2-dimethyl-2,3-dihydrobenzofuran-7-yl)methoxy)phenyl)-2-methylpropanoic acid]	24
Cc1cc2cc(Cl)cc(COc3ccc(CC(C)C(=O)O)cc3F)c2o1 (centres unmarked) [Example 120, 3-(4-((5-chloro-2-methylbenzofuran-7-yl)methoxy)-3-fluorophenyl)-2-methylpropanoic acid]	104.49
C[C@H](Cc1ccc(OCc2cc(F)cc3c2OC(C)(C)C3)cc1)C(=O)O [Example 65, (R)-3-(4-((5-fluoro-2,2-dimethyl-2,3-dihydrobenzofuran-7-yl)methoxy)phenyl)-2-methylpropanoic acid]	141.04
CC(Cc1ccc(NCc2cc(F)cc3c2OC(C)(C)C3)cc1)C(=O)O (centres unmarked) [Example 67]	141.82
CC(CC(=O)O)Cc1ccc(OCc2cc(F)cc3c2OC(C)(C)C3)cc1 (centres unmarked) [Example 182, 4-(4-((5-fluoro-2,2-dimethyl-2,3-dihydrobenzofuran-7-yl)methoxy)phenyl)-3-methylbutanoic acid]	98.43
CCc1cc(OCc2cccc3c2CC(C)(C)O3)ccc1CCC(=O)O [Example 140, 3-(4-((2,2-dimethyl-2,3-dihydrobenzofuran-4-yl)methoxy)-2-ethylphenyl)propanoic acid]	146.18
CC1(C)Cc2c(COc3ccc4c(c3)CCC4CC(=O)O)ccc(F)c2O1 (centres unmarked) [Example 94, 2-(5-((7-fluoro-2,2-dimethyl-2,3-dihydrobenzofuran-4-yl)methoxy)-2,3-dihydro-1H-inden-1-yl)acetic acid]	98.45
Cc1nc2cccc(COc3c(F)cc(CC(C)C(=O)O)cc3F)c2o1 (centres unmarked) [Example 261, 3-(3,5-difluoro-4-((2-methylbenzo[d]oxazol-7-yl)methoxy)phenyl)-2-methylpropanoic acid]	108.78
CC(CCc1ccc(OCc2cc(F)cc3c2OC(C)(C)C3)cc1)C(=O)O (centres unmarked) [Example 171, 4-(4-((5-fluoro-2,2-dimethyl-2,3-dihydrobenzofuran-7-yl)methoxy)phenyl)-2-methylbutanoic acid]	98.97
O=C(O)C1CC1c1ccc(OCc2cc(F)cc3c2OC2(CCCC2)C3)cc1 (centres unmarked) [Example 165, 2-(4-((5-fluoro-3H-spiro[benzofuran-2,1′-cyclopentane]-7-yl)methoxy)phenyl)cyclopropanecarboxylic acid]	158.08
CC(Cc1ccc(OCc2cc(Cl)cc3c2OC(C)(C)C3)c(CN(C)C)c1)C(=O)O (centres unmarked) [Example 88, 3-(4-((5-chloro-2,2-dimethyl-2,3-dihydrobenzofuran-7-yl)methoxy)-3-((dimethylamino)methyl)phenyl)-2-methylpropanoic acid]	118.92
[2H]C1([2H])c2cc(F)cc(COc3ccc(CC(C)C(=O)O)cc3)c2OC1(C)C (centres unmarked) [Example 145, 3-(4-((3,3-dideuterio-5-fluoro-2,2-dimethyl-2,3-dihydrobenzofuran-7-yl)methoxy)phenyl)-2-methylpropanoic acid]	143.69
CC(Cc1ccc(OCc2cc(Cl)cc3c2OC2(CCCC2)C3)cc1)C(=O)O (centres unmarked) [Example 159, 3-(4-((5-chloro-3H-spiro[benzofuran-2,1′-cyclopentane]-7-yl)methoxy)phenyl)-2-methylpropanoic acid]	164.79
CC(Cc1ccc(OCc2c(F)ccc3c2CC(C)(C)O3)cc1)C(=O)O (centres unmarked) [Example 96, 3-(4-((5-fluoro-2,2-dimethyl-2,3-dihydrobenzofuran-4-yl)methoxy)phenyl)-2-methylpropanoic acid]	124.82
CC(Cc1ccc(OCc2cc(F)cc3c2OCOC3)cc1)C(=O)O (centres unmarked) [Example 45, 3-(4-((6-fluoro-4H-benzo[d][1,3]dioxin-8-yl)methoxy)phenyl)-2-methylpropanoic acid]	79.58
CC1(C)Cc2cc(F)cc(COc3ccc(CCCC(=O)O)cc3)c2O1 [Example 160, 4-(4-((5-fluoro-2,2-dimethyl-2,3-dihydrobenzofuran-7-yl)methoxy)phenyl)butanoic acid]	172.13
COc1cccc(-c2cc(COc3ccc(CC(C)C(=O)O)cc3)c3c(c2)CC(C)(C)O3)c1 (centres unmarked) [Example 86, 3-(4-((5-(3-methoxyphenyl)-2,2-dimethyl-2,3-dihydrobenzofuran-7-yl)methoxy)phenyl)-2-methylpropanoic acid]	5.23
CC1(C)Cc2cc(Cl)cc(COc3ccccc3CCC(=O)O)c2O1 [Example 250, 3-(2-((5-chloro-2,2-dimethyl-2,3-dihydrobenzofuran-7-yl)methoxy)phenyl)propanoic acid]	10.23
CC1(C)Cc2cc(F)cc(COc3ccc(C4CC4C(=O)O)cc3)c2O1 (single isomer, unassigned) [Example 131A, 2-(4-((5-fluoro-2,2-dimethyl-2,3-dihydrobenzofuran-7-yl)methoxy)phenyl)cyclopropanecarboxylic acid]	103.75
CCc1cc(OCc2cc(F)cc3c2OC(C)(C)C3)c(F)cc1CCC(=O)O [Example 220, 3-(2-ethyl-5-fluoro-4-((5-fluoro-2,2-dimethyl-2,3-dihydrobenzofuran-7-yl)methoxy)phenyl)propanoic acid]	115.86

same assay, conditions: human GPR120 stably expressing cells, eight concentrations from 0.00001 to 20 μM

SMILES	EC50 [µM]
C[C@H](Cc1ccc(OCc2cc(F)cc3c2OC(C)(C)C3)cc1)C(=O)O [Example 65, (R)-3-(4-((5-fluoro-2,2-dimethyl-2,3-dihydrobenzofuran-7-yl)methoxy)phenyl)-2-methylpropanoic acid]	1 to 10
CC(Cc1ccc(OCc2cc(-c3cccc(C(F)(F)F)c3)cc3c2OC(C)(C)C3)cc1)C(=O)O (centres unmarked) [Example 87, 3-(4-((2,2-dimethyl-5-(3-(trifluoromethyl)phenyl)-2,3-dihydrobenzofuran-7-yl)methoxy)phenyl)-2-methylpropanoic acid]	1 to 10
CC(Cc1ccc(NCc2cc(F)cc3c2OC(C)(C)C3)cc1)C(=O)O (centres unmarked) [Example 67]	1 to 10
CC(Cc1ccc(OCc2cc(Cl)cc3c2OC(C)(C)C3)c(CN(C)C)c1)C(=O)O (centres unmarked) [Example 88, 3-(4-((5-chloro-2,2-dimethyl-2,3-dihydrobenzofuran-7-yl)methoxy)-3-((dimethylamino)methyl)phenyl)-2-methylpropanoic acid]	1 to 10
COc1cc(CCC(=O)O)c(Br)cc1OCc1cc(Cl)cc2c1OC(C)(C)C2 [Example 57, 3-(2-bromo-4-((5-chloro-2,2-dimethyl-2,3-dihydrobenzofuran-7-yl)methoxy)-5-methoxyphenyl)propanoic acid]	1 to 10
CC(Cc1ccc(OCc2ccc(F)c3c2OC(C)(C)C3)cc1)C(=O)O (centres unmarked) [Example 30, 3-(4-((4-fluoro-2,2-dimethyl-2,3-dihydrobenzofuran-7-yl)methoxy)phenyl)-2-methylpropanoic acid]	1 to 10
COc1cccc(-c2cc(COc3ccc(CC(C)C(=O)O)cc3)c3c(c2)CC(C)(C)O3)c1 (centres unmarked) [Example 86, 3-(4-((5-(3-methoxyphenyl)-2,2-dimethyl-2,3-dihydrobenzofuran-7-yl)methoxy)phenyl)-2-methylpropanoic acid]	1 to 10
